Marks after values point to notes of the source that are not given here.
What was measured:
[1] = system: commercial broilers; experiment: Natamycin in feeds formulated for portion-control processed broilers (Example 1); format: in vivo, Gallus domesticus
Description: (§1) Mixed feed was stored in 50 lb capacity feed sacks. Feed was stored by treatment and treatment diets were further identified with color-codes. After each diet had been mixed, three composite samples (approximately 1 lb each) were collected. The amount of feed mixed for each treatment was as follows: [table] Normal, healthy day-old chicks were obtained from a commercial hatchery. Birds were transported from the hatchery location to Denver, Colo. via commercial air freight. Ground transportation was used to transport chicks from Denver to Wellington, Colo. The study started with 1200 commercial broilers of the species Gallus domesticus, the birds being placed into pens (30 male/30 female per pen). Treatments were assigned to pens using randomized block design. The research facility was divided into 10 blocks of 2 pens each. Birds were assigned randomly according to CQR SOPs. [table] Feed was provided ad libitum throughout the study via two hanging 17-inch diameter tube feeders per pen. A chick feeder tray was also placed in each pen for approximately the first 6 days. All birds were placed on their respective treatment diets upon receipt (approx. 0 days of age). All feed added and removed from pens was weighed and recorded. All experimental diet changes were conducted at the same time for both treatment groups.

[2] = system: commercial broilers; experiment: Natamycin in feeds formulated for growing large broilers (Example 2); format: in vivo, Gallus domesticus
Description: as §1, with “1400” for “1200”, “domesticus.” for “domesticus, the birds being placed into pens (30 male/30 female per pen).”, “SOPs.” for “SOPs. [table]”

[3] = system: commercial broilers; experiment: Natamycin feed additive in diets manufactured using a gap extender (Example 3); format: in vivo, Gallus domesticus
Description: as §1, with “The natamycin test article” for “Mixed feed”, “mixed into the treatment” for “stored in 50 lb capacity feed sacks. Feed was stored”, “the ConAgra Poultry Company. Once” for “treatment and treatment diets were further identified with color-codes. After”, “1140” for “1200”, “domesticus.” for “domesticus, the birds being placed into pens (30 male/30 female per pen).”

[4] = cited from earlier work
[5] = 49 days, 1 lbs/ton natamycin in feed ad libitum

C[C@@H]1C/C=C/C=C/C=C/C=C/[C@H](O[C@@H]2O[C@H](C)[C@@H](O)[C@H](N)[C@@H]2O)C[C@@H]2O[C@](O)(C[C@@H](O)C[C@H]3O[C@@H]3/C=C/C(=O)O1)C[C@H](O)[C@H]2C(=O)O [Natamycin, natamycin]
Breast Weight, Treatment Total ([1]; 43 days, 1 lbs/ton natamycin in feed ad libitum, 230 birds): 77.485 | % Breast, Treatment Average ([1]; 43 days, 1 lbs/ton natamycin in feed ad libitum, statistically extremely significant): 22.83** % | Breast Weight, Treatment Average ([1]; 43 days, 1 lbs/ton natamycin in feed ad libitum, statistically very significant): 0.337* | Breast weight and breast yield versus control ([1]; over a 43 day period, statistically significant): increased breast weight and breast yield | Breast Weight, Treatment Total ([2]; 61 days, 1 lbs/ton natamycin in feed ad libitum, 230 birds printed): 141.840 | % Breast, Treatment Average ([2]; 61 days, 1 lbs/ton natamycin in feed ad libitum, statistically extremely significant): 21.72** % | Breast Weight, Treatment Average ([2]; 61 days, 1 lbs/ton natamycin in feed ad libitum, statistics not calculated): 0.505 | Breast weight and breast yield versus control ([2]; over a 61 day period, breast yield increase statistically significant): increased breast weight and breast yield | Breast Weight, Bird Average [3, 5]: 0.465 | Breast Weight, Pen Average [3, 5]: 8.315 | % Breast, Pen Average ([3]; 49 days, 1 lbs/ton natamycin in feed ad libitum, statistically significant): 23.31* % | Breast weight and breast yield versus control ([3]; over a 49 day period, breast yield increase statistically significant): increased breast weight and breast yield | Solubility in water [4]: 0.005-0.010 weight/weight percent

Source: patent publication US7910560B2, “Method for increasing breast meat yield in poultry” (Arkion Life Sciences LLC, priority 2003, dated 2011)
